Reference: patent US7449463B2, “Morpholinyl containing benzimidazoles as inhibitors of respiratory syncytial virus replication” (Tibotec Pharmaceuticals Ltd., priority 2003, dated 2008)

tested on: Respiratory Syncytial Virus; assay: microbe, parasite or virus in culture; type: cell-based; details: RSV-infected HeLa cells, MTT readout seven days after infection; −log of EC50 in molar units
Text: In vitro Screening for Activity against Respiratory Syncytial Virus.
The percent protection against cytopathology caused by viruses (antiviral activity or EC50) achieved by tested compounds and their cytotoxicity (CC50) are both calculated from dose-response curves. The selectivity of the antiviral effect is represented by the selectivity index (SI), calculated by dividing the CC50 (cytotoxic dose for 50% of the cells) by the EC50 (antiviral activity for 50% of the cells).
Automated tetrazolium-based colorimetric assays were used for determination of EC50 and CC50 of test compounds. Flat-bottom, 96-well plastic microtiter trays were filled with 180 μl of Eagle's Basal Medium, supplemented with 5% FCS (0% for FLU) and 20 mM Hepes buffer. Subsequently, stock solutions (7.8× final test concentration) of compounds were added in 45 μl volumes to a series of triplicate wells so as to allow simultaneous evaluation of their effects on virus- and mock-infected cells. Five five-fold dilutions were made directly in the microtiter trays using a robot system. Untreated virus controls, and HeLa cell controls were included in each test. Approximately 100 TCID50 of Respiratory Syncytial Virus was added to two of the three rows in a volume of 50 μl. The same volume of medium was added to the third row to measure the cytotoxicity of the compounds at the same concentrations as those used to measure the antiviral activity. After two hours of incubation, a suspension (4×10^5 cells/ml) of HeLa cells was added to all wells in a volume of 50 μl. The cultures were incubated at 37° C. in a 5% CO2 atmosphere. Seven days after infection the cytotoxicity and the antiviral activity was examined spectrophotometrically. To each well of the microtiter tray, 25 μl of a solution of MTT (3-(4,5-dimethylthiazol-2-yl)-2,5-diphenyltetrazolium bromide) was added. The trays were further incubated at 37° C. for 2 hours, after which the medium was removed from each cup. Solubilization of the formazan crystals was achieved by adding 100 μl 2-propanol. Complete dissolution of the formazan crystals were obtained after the trays have been placed on a plate shaker for 10 min. Finally, the absorbances were read in an eight-channel computer-controlled photometer (Multiskan MCC, Flow Laboratories) at two wavelengths (540 and 690 nm). The absorbance measured at 690 nm was automatically subtracted from the absorbance at 540 nm, so as to eliminate the effects of non-specific absorption.

Molecule | Activity
Cc1ccc(NCCO)c(NCc2ccc3nc(NCCCN4CCOCC4)n(Cc4nc(C)ccc4O)c3c2)c1 [Compound 39] | 8.5
Cc1cccc(N(CCN(C)C)Cc2ccc3nc(NCCCN4CCOCC4)n(Cc4nc(C)ccc4O)c3c2)c1 [Compound 100] | 8.4
Cc1cc(C)cc(N(CCC(=O)O)Cc2ccc3nc(NCCCN4CCOCC4)n(Cc4nc(C)ccc4O)c3c2)c1 [Compound 69] | 8.7
Cc1ccc(O)c(Cn2c(NCCCN3CCOCC3)nc3ccc(CO)cc32)n1 [Compound 52] | 7.2
Cc1ccc(O)c(Cn2c(NCCCN3CCOCC3)nc3ccc(CNc4cccc(Br)c4)cc32)n1 [Compound 26] | 8.7
Cc1ccc(O)c(Cn2c(NCCCN3CCOCC3)nc3ccc(CNc4ccc(C(N)=O)cc4)cc32)n1 [Compound 38] | 8.5
Cc1ccc(O)c(Cn2c(NCCCN3CCOCC3)nc3ccc(CN(CCCO)c4cccc(Br)c4)cc32)n1 [Compound 95] | 8.6
Cc1cc(C)cc(N(CCCO)Cc2ccc3nc(NCCCN4CCOCC4)n(Cc4nc(C)ccc4O)c3c2)c1 [Compound 63] | 9.3
Cc1ccc(O)c(Cn2c(NCCCN3CCOCC3)nc3ccc(CN(CCO)c4ccc(C#N)cc4)cc32)n1 [Compound 88] | 9.1
Cc1ccc(O)c(Cn2c(NCCCN3CCSCC3)nc3ccc(CO)cc32)n1 [Compound 182] | 7.1
Cc1cc(C)cc(N(CCCCO)Cc2ccc3nc(NCCCN4CCOCC4)n(Cc4nc(C)ccc4O)c3c2)c1 [Compound 61] | 9.5
Cc1ccc(O)c(Cn2c(NCCCN3CCOCC3)nc3ccc(CNc4ccccc4CO)cc32)n1 [Compound 29] | 8.6
Cc1ccc(C)c(NCc2ccc3nc(NCCCN4CCOCC4)n(Cc4nc(C)ccc4O)c3c2)c1 [Compound 40] | 8.4
Cc1ccc(O)c(Cn2c(NCCCN3CCOCC3)nc3ccc(CNc4cc(Br)ccc4CCO)cc32)n1 [Compound 11] | 9.6
Cc1cc(C)cc(N(CCCC(N)=O)Cc2ccc3nc(NCC(O)CN4CCOCC4)n(Cc4nc(C)ccc4O)c3c2)c1.Cl (centres unmarked) [Compound 178, 4-{(3,5-Dimethyl-phenyl)-[3-(3-hydroxy-6-methyl-pyridin-2-ylmethyl)-2-(2-hydroxy-3-morpholin-4-yl-propylamino)-3H-benzoimidazol-5-ylmethyl]-amino}-butyramide, HCl salt] | 9.6
Cc1ccc(O)c(Cn2c(NCCCN3CCOCC3)nc3ccc(CNc4ccccc4C#N)cc32)n1 [Compound 27] | 8.7
Cc1ccc(O)c(Cn2c(NCCCN3CCOCC3)nc3ccc(CNc4cc(Cl)ccc4CCCO)cc32)n1 [Compound 4] | 9.9
Cc1ccc(O)c(Cn2c(NCCCN3CCOCC3)nc3ccc(CNc4cccc(OC(F)(F)F)c4)cc32)n1 [Compound 36] | 8.5
Cc1ccc(O)c(Cn2c(NCCCN3CCOCC3)nc3ccc(CNc4ccccc4CCN4CCOCC4)cc32)n1 [Compound 42] | 8.3
Cc1ccc(O)c(Cn2c(NC3CCN(CCN4CCOCC4)CC3)nc3cc(/C=C/c4ccccc4)ccc32)n1 [Compound 167] | 6.7
Cc1cc(C)cc(N(Cc2ccc3nc(NCCCN4CCOCC4)n(Cc4nc(C)ccc4O)c3c2)Cc2c[nH]cn2)c1 [Compound 81] | 8.9
Cc1ccc(O)c(Cn2c(NC3CCN(CCN4CCOCC4)CC3)nc3c(C)cccc32)n1 [Compound 166] | 6.8
Cc1ccc(C#CCO)c(NCc2ccc3nc(NCCCN4CCOCC4)n(Cc4nc(C)ccc4O)c3c2)c1 [Compound 34, 2-[6-{[2-(3-Hydroxy-prop-1-ynyl)-5-methyl-phenylamino]-methyl}-2-(3-morpholin-4-yl-propylamino)-benzoimidazol-1-ylmethyl]-6-methyl-pyridin-3-ol] | 8.6
Cc1ccc(O)c(Cn2c(NCCCN3CCOCC3)nc3ccc(CNc4cc(F)ccc4CCO)cc32)n1 [Compound 18] | 9.6
Cc1cccc(NCc2ccc3nc(NCCCN4CCOCC4)n(Cc4nc(C)ccc4O)c3c2)c1 [Compound 28] | 8.6

same assay, conditions: human respiratory syncytial virus, 168 h; RSV-infected HeLa cells, MTT readout seven days after infection; −log of EC50 in molar units

Molecule | EC50 [nM]
Cc1cc(C)cc(NCc2ccc3c(c2)nc(NCCCN2CCCOCC2)n3Cc2nc(C)ccc2O)c1 [Compound 174, 2-[5-[(3,5-Dimethyl-phenylamino)-methyl]-2-(3-[1,4]oxazepan-4-yl-propylamino)-benzoimidazol-1-ylmethyl]-6-methyl-pyridin-3-ol] | 2.51

same assay, conditions: pEC50 (−log of EC50 when expressed in molar units), protection against RSV cytopathology

Molecule | Activity
Cc1ccc(C)c(NCc2ccc3c(c2)nc(NCCCN2CCOCC2)n3C2CCCc3nc(C)c(C)nc32)c1 (centres unmarked) [Compound 276] | 7.2
Cc1nc(C)c(Cn2c(NCCCN3CCOCC3)nc3ccc(CNc4ccccc4CCCO)cc32)nc1C [Compound 243] | 7.8
COc1ccc(C)nc1Cn1c(NCCCN2CCOCC2)nc2ccc(CNc3cccc(Br)c3)cc21 [Compound 297] | 6.9
OCc1ccc2c(c1)nc(NCCCN1CCOCC1)n2Cc1cccc(Br)n1 [Compound 294] | 6.9
Cn1cnc2c(Cn3c(NCCCN4CCOCC4)nc4ccc(CNc5ccc(C(N)=O)cc5)cc43)cccc21 [Compound 296] | 6.9
COc1ccc(C)nc1Cn1c(NCCCN2CCOCC2)nc2ccc(CNc3ccccc3CCCO)cc21 [Compound 239] | 7.9
Cc1nc(C)c(Cn2c(NCCCN3CCOCC3)nc3ccc(CNc4ccc(C(N)=O)cc4)cc32)nc1C [Compound 291] | 7
Cn1cnc2c(Cn3c(NCCCN4CCOCC4)nc4ccc(CNc5ccccc5CCN5CCOCC5)cc43)cccc21 [Compound 242] | 7.8
Cc1cc(C)cc(N(CCO)Cc2ccc3nc(NCCCN4CCOCC4)n(Cc4cccc(Br)n4)c3c2)c1.Cl [Compound 278] | 7.1
OCCCc1ccc(C(F)(F)F)cc1NCc1ccc2nc(NCCCN3CCOCC3)n(Cc3ncccc3O)c2c1 [Compound 216] | 8.7
Cn1cnc2c(Cn3c(NCCCN4CCOCC4)nc4ccc(CNc5ccccc5CCO)cc43)cccc21 [Compound 237] | 7.9
Cc1cccc(NCc2ccc3nc(NCCCN4CCOCC4)n(Cc4cccc5c4ncn5C)c3c2)c1CCO [Compound 277] | 7.1
Cc1ccc(CCCO)c(NCc2ccc3c(c2)nc(NCCCN2CCOCC2)n3Cc2cccc3c2ncn3C)c1 [Compound 328] | 5.8
Cc1ccc(CCO)c(NCc2ccc3nc(NCCCN4CCOCC4)n(Cc4cccc(C)n4)c3c2)c1 [Compound 275] | 7.2
Cc1nc2c(nc1C)C(n1c(NCCCN3CCOCC3)nc3cc(CO)ccc31)CCC2 (centres unmarked) [Compound 336] | 5.4
Cc1ccc(CCCO)c(NCc2ccc3c(c2)nc(NCCCN2CCOCC2)n3Cc2ncccc2O)c1 [Compound 301] | 6.8
Cc1cccc(NCc2ccc3nc(NCCCN4CCOCC4)n(Cc4cccc5c4ncn5C)c3c2)c1 [Compound 295] | 6.9
COc1ccc(C)nc1Cn1c(NCCCN2CCOCC2)nc2ccc(CNc3cc(C)ccc3CCO)cc21 [Compound 220] | 8.6
COc1ccc(C)nc1Cn1c(NCCCN2CCOCC2)nc2ccc(CNc3cccc(C)c3CO)cc21 [Compound 298] | 6.9
Cc1cc(C)cc(N(CCCC(N)=O)Cc2ccc3nc(NCCCN4CCOCC4)n(Cc4ccc(F)cc4)c3c2)c1 [Compound 315] | 6.5
4-{(3,5-Dimethyl-phenyl)-[3-(3-hydroxy-pyridin-2-ylmethyl)-2-(3-morpholin-4-yl-propylamino)-3H-benzoimidazol-5-ylmethyl]-amino}-butyramide [Compound 228] | 8.4
